Values quoted from earlier work, collected in US20040002663A1, “Method and system for use in detecting a cancerous and precancerous pathology” (priority 2002, published 2004).
Like-named read-outs stand apart in the source and are kept apart here.

What was measured:
[1] = tested on: alpha-adrenergic receptors of the arteriolar and venous vasculature; details: active metabolite of midodrine
[2] = tested on: cardiac beta-adrenergic receptors
[3] = tested on: patients with orthostatic hypotension
[4] = tested on: patients with orthostatic hypotension; details: for increase in one-minute standing systolic blood pressure: 10 mg at 0, 3, 6 hours
[5] = tested on: patients with orthostatic hypotension; details: for increase in standing one-minute systolic pressure: at one hour
[6] = tested on: patients with orthostatic hypotension of various etiologies
[7] = 10 mg t.i.d., printed as a pair (systolic/diastolic)

COc1ccc(OC)c(C(O)CN)c1 (stereo not drawn) [Desglymidodrine]
action at alpha-adrenergic receptors [1]: alph1-agonist
stimulation of cardiac beta-adrenergic receptors [2]: does not stimulate

COc1ccc(OC)c(C(O)CNC(=O)CN)c1.Cl (racemic) [midodrine, (±)−2-amino-N-(β-hydroxy-2,5-dimethoxyphenethyl)acetamide monohydrochloride]
higher one-minute standing systolic pressure ([3]; 10 mg t.i.d., one hour after dosing, 170 patients, vs placebo): about 20 mmHg
sitting blood pressure rise [3, 7]: 20/10
supine blood pressure rise [3, 7]: 16/8
dizziness/light headedness/unsteadiness scores and global evaluations ([3]; after week one): small improvements
increase in one-minute standing systolic blood pressure ([4]; one hour after each dose): about 15 mmHg
increase in one-minute standing systolic blood pressure ([4]; three hours after each dose): about 12 mmHg
three-minute standing pressures ([4]; 10 mg, one and 3 hours after dosing): increased also at one, but not 3, hours after dosing
standing time ([4]; 10 mg, one and three hours after dosing): increases in standing time seen intermittently one hour after dosing, but not at three hours
time the increase in standing systolic pressure was sustained in part ([5]; after 10 mg): two
time the increase in standing systolic pressure was sustained in part ([5]; after 20 mg): four
increase in standing one-minute systolic pressure ([5]; single 10 mg dose): about 30 mmHg
increase in standing one-minute systolic pressure ([5]; single 20 mg dose): about 30 mmHg
standing, sitting, and supine systolic and diastolic blood pressure [6]: rise
